Tests used:
Plasmodium falciparum = assay: Antiplasmodial activity against chloroquine-sensitive Plasmodium falciparum 3D7 infected in human erythrocytes assessed as inhibition of parasite growth incubated for 72 hrs by DAPI staining based fluorescence analysis; format: functional, organism-based; conditions: 3D7, Erythrocyte
HEK293 = assay: Cytotoxicity against human HEK293 cells at 40 uM; format: cell-based; conditions: hek293, 40 µM
[1] = Cytotoxicity against human HEK293 cells assessed as cell death; format: cell-based; conditions: read-out: LD50 (the source's name)

## CC(C)=CCc1cc2c(cc1O)OC[C@@]1(O)c3cc4c(cc3O[C@@H]21)OCO4
Plasmodium falciparum
  IC50: 10.2 µM
HEK293
  Activity: 27%

## C=C(C)[C@H]1Cc2c(ccc3c2O[C@@H]2C(O)Oc4cc(OC)c(OC)cc4[C@@H]2C3=O)O1 (stereo partly drawn)
Plasmodium falciparum
  IC50: 8.6 µM
[1]
  CC50: 10.9 µM

## COc1cc(OC)c2c(c1CC=C(C)C)O[C@H](c1ccccc1)C[C@H]2OC
Plasmodium falciparum
  IC50: 7.4 µM
HEK293
  Activity: 87%

## COc1cc(OC)c2c(c1CC=C(C)C)O[C@H](c1ccccc1)C[C@H]2O
Plasmodium falciparum
  IC50: 14.5 µM

## CC(C)=CCC1(CC=C(C)C)C(=O)C(=O)C2=C1O[C@H](c1ccccc1)C[C@H]2O (relative stereo)
Plasmodium falciparum
  IC50: 7 µM
HEK293
  Activity: 101%

## CC(C)=CCC1(CC=C(C)C)C(=O)[C@](O)(CC=C(C)C)C(=O)C2=C1O[C@H](c1ccccc1)C[C@H]2O (relative stereo)
Plasmodium falciparum
  IC50: 5.7 µM
HEK293
  Activity: 34%

## CC(C)=CCC1(CC=C(C)C)C(=O)[C@@](O)(CC=C(C)C)C(=O)C2=C1O[C@H](c1ccccc1)C[C@H]2O (relative stereo)
Plasmodium falciparum
  IC50: 7.3 µM
HEK293
  Activity: 71%

— ChEMBL document CHEMBL4699462, “Prenylated Flavonoids from the Roots of Tephrosia rhodesica” (J Nat Prod, 2020)
